Reference: PMC6481325, “Novel N,N-dialkyl cyanocinnamic acids as monocarboxylate transporter 1 and 4 inhibitors” (Oncotarget, 2019)
Read-outs that look alike come from different tables or passages of the source. Blank lines part the entries; values can stand above or below the molecule they belong to.

What was measured:
[1] = system: MCT1 expressing WiDr cells; assay: Seahorse XFe96 glycolysis stress test (ECAR), WiDr; format: cell-based; details: 30 μM
Protocol: (§1) In the GST, three parameters namely glycolysis, glycolytic capacity and glycolytic reserve were measured.
(§2) Extracellular acidification rates (ECAR) and oxygen consumption rates (OCR) were recorded in real-time for glycolysis stress test (GST) and mitochondrial stress test (MST), respectively, using Agilent Seahorse XFe96® analyzer.

[2] = system: MCT4 expressing MDA-MB-231 cells; assay: Seahorse XFe96 glycolysis stress test (ECAR), MDA-MB-231; format: cell-based; details: 30 μM
Protocol: as §1, §2

[3] = system: MCT4 expressing MDA-MB-231 cells; assay: Seahorse XFe96 mitochondrial stress test (OCR), MDA-MB-231; format: cell-based; details: 30 μM
Protocol: as §2

[4] = system: MCT1 expressing WiDr cells; assay: Seahorse XFe96 mitochondrial stress test (OCR), WiDr; format: cell-based; details: 30 μM
Protocol: as §2

[5] = system: WiDr cells; assay: SRB cell proliferation inhibition assay, WiDr; format: cell-based; details: Homo sapiens, 72 hours, average ± sem
Protocol: (§3) MDA-MB-231 cells (ATCC, 2015) were grown in DMEM supplemented with 10% FBS and penicillin-streptomycin (50 U/ml, 50 μg/ml, Invitrogen). WiDr cells (ATCC, 2017) were cultured in MEM medium supplemented with 10% FBS (Atlanta Biologicals) and penicillin-streptomycin (50 U/ml, 50 μg/ml). For in vitro experiments, after seeding, cells were incubated at 37°C in 5% CO2 for 18–24 hours before the addition of test compounds.
(§4) Cells (5 × 10^4 cells/mL) were cultured in 48-well plates. Test compounds were dissolved in DMSO (final concentration of DMSO is <0.1%) and were added to culture wells at various concentrations in replicate and incubated for 72 hours. Growth medium was removed and the wells were washed with PBS and dried. SRB (0.5% in 1% acetic acid) was added to the wells and incubated for 30–45 minutes. The wells were washed 3 times with 1% acetic acid and dried. The cellular protein was dissolved in trizma base (10 mM, pH 10.2) and absorbance was recorded at 540 nm. Percent survival was calculated using the formula %Survival=Abstest compound/Abscontrol×100 .

[6] = system: MDA-MB-231 cells; assay: SRB cell proliferation inhibition assay, MDA-MB-231; format: cell-based; details: Homo sapiens, 72 hours, average ± sem
Protocol: as §3, §4

[7] = biological target: T1, MCT4 (Homo sapiens, UniProt O15427); assay: L-[14C]-lactate uptake study in MCT4 expressing MDA-MB-231 cells; format: cell-based
T1 construct: These cells predominantly express MCT4 as confirmed by Western blot and quantitative PCR analysis; host or cells: MDA-MB-231
T1 sequence (O15427 2-465 limits assumed): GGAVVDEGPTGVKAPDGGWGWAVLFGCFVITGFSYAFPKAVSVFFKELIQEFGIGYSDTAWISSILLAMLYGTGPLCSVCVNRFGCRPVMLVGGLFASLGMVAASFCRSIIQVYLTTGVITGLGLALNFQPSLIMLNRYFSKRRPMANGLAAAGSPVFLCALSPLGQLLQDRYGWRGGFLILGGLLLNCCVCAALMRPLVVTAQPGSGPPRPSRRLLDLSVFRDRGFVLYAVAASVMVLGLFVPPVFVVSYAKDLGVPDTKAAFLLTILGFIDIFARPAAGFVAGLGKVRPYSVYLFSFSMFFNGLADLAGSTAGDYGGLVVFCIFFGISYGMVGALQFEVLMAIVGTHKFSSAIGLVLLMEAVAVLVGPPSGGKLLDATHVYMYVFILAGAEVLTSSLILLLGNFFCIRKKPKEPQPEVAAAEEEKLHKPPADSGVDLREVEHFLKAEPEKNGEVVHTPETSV
T1 sequence (P35613 140-385 partner limits assumed): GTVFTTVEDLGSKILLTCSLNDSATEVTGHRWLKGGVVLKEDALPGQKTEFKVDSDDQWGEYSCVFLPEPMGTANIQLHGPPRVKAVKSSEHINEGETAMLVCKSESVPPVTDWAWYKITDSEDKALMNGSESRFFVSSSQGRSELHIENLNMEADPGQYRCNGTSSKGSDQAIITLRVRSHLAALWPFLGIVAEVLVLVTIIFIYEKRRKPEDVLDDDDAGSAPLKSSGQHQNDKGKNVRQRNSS
Protocol: In this study, an L-[^14C]-lactate based transport assay was developed by us to quantify MCT4 transport and its inhibition by test compounds. […] For the MCT4 transport assay, the pH of HEPES buffer with L-[^14C]-lactate was adjusted to 7.0 such that lactate influx into the cells was aided by the pH gradient. […] Test compounds were diluted to working concentration in HEPES buffer (140 mM NaCl, 5 mM KCl, 2 mM CaCl2, 2 mM MgCl2, 10 mM HEPES, pH 7.0) containing 3 μM L-[^14C]-lactate (Perkin Elmer) and 2 μM L-lactate. […] HEPES buffer was replaced with 250 μL test solution. After 1 hour, media was replaced with 500 μL ice-cold stop buffer (0.1 mM CHC solution in HBS, pH 7.4) and the plates were placed on ice. Cells were washed twice with ice-cold stop buffer and solubilized using 250 μL of 0.1 M NaOH in 5% Triton-X (Millipore Sigma). A 150 μL aliquot from each well was added to 4 mL EcoLite(+)™ scintillation fluid (MP Biomedicals) and radioactivity was determined by scintillation spectrometry. Inhibition by each test solution was calculated as a percentage of the maximum control uptake. CHC and dimethylsulfoxide (DMSO) were used as controls. […]

[8] = system: MCT1; details: RBE4 cells, cited from earlier work
[9] = system: MDA-MB-231 tumor xenograft; assay: Tumor growth inhibition, MDA-MB-231 xenograft model; format: in vivo; details: SCID mice
Protocol: Figure 6 In vivo xenograft studies in WiDr and MDA-MB-231 tumor models (A) WiDr tumor xenograft study of compound 3 and compound 9. Mice (n = 8) were treated with 8 mg/kg of compound 3, intraperitoneally, two times a day. (B) Tumor growth inhibition study with compound 9 in MDA-MB-231 tumor xenograft model (n = 6). Mice were treated with compound 9 (70 mg/kg, ip, bid until day-4; qd from day-5), a combination of 9 and doxorubicin (0.5 mg/kg, ip, five days a week), and doxorubicin. (C) Tumor growth inhibition based on isolated tumor mass. ^*P < 0.05, ^**P < 0.01, ^***P < 0.001, ^****P < 0.0001. Schematic representation of (D) untreated tumor cells and (E) inhibition of MCT1 and MCT4 and decreased glycolysis and mitochondrial OxPhos in compound 9 treated tumor cells. Upward hollowed arrow indicates “increase” in function/amount and downward hollowed arrow indicates “decrease” in function/amount.
Group-1 was administered with compound 9, group-2 was given a combination of compound 9 and clinical breast cancer drug doxorubicin (AKSci catalog # E518), and group-3 was treated with doxorubicin alone. Group-4 was assigned as a control group and treated with vehicle (10% DMSO in saline). The treatment was continued up to 18 days and on day 20, the mice were euthanized and tumor masses isolated and weighed. […] Due to these reasons, higher dosages of compound 9 were required to produce significant anticancer efficacy in vivo. In all these studies, <20% of body weight loss was observed.
Tumor cells suspended in 1:1 matrigel-PBS were injected on right flank of female SCID mice (n = 6 mice/group, 10^7 MDA-MB-231 cells) or right flank of female athymic nude mice (n = 8 mice/group, 5 × 10^6 WiDr cells). Tumors were measured using calipers every 2–3 days and tumor volumes were calculated using the formula V = ab^2/2 where ‘a’ is the long diameter of the tumor and ‘b’ is the short diameter of the tumor. Tumor growth inhibition was determined using the formula % inhibition = [(C – T)/C] × 100 where C is average tumor weight of the control group and T is the average tumor weight of the test group.

[10] = Supplementary Table 1, average ± SEM, read-out: MCT4 IC50
[11] = Supplementary Table 1, average ± SEM

Compound: Cc1[nH]nc(C(F)(F)F)c1Cc1sc2c(c1C(=O)N1C[C@](C)(O)CO1)c(=O)n(C)c(=O)n2C(C)C [AZD3965, reference compound]
glycolytic capacity (GST, ECAR) [1]: decreased | glycolytic reserve (GST, ECAR) [1]: decreased | glycolysis (GST, ECAR) [2]: did not show any glycolysis inhibition | glycolytic capacity (GST, ECAR) [2]: decreased glycolytic capacity only in WiDr | glycolytic reserve (GST, ECAR) [2]: decreased glycolytic reserve only in MCT1 expressing WiDr | ATP production (MST, OCR) [3]: did not affect | maximal respiration (MST, OCR) [3]: did not affect | proton leak (MST, OCR) [3]: did not affect | spare respiratory capacity (MST, OCR) [3]: did not affect | ATP production (MST, OCR) [4]: did not affect | maximal respiration (MST, OCR) [4]: did not affect | proton leak (MST, OCR) [4]: did not affect | spare respiratory capacity (MST, OCR) [4]: did not affect

Compound: C=CCN(CC=C)c1ccc(/C=C(\C#N)C(=O)O)c(OC)c1 [Allyl (2)]
IC50 [5]: > 25000 nM | IC50 [6]: > 25000 nM | IC50 ([7]; Figure 1A and text, lactate uptake, read-out: MCT4 IC50): 28 nM | IC50 [7, 10]: 24 ± 6 nM | IC50 [8, 11]: 29 ± 2 nM

Compound: COc1cc(N(Cc2ccccc2)Cc2ccccc2)ccc1/C=C(\C#N)C(=O)O [Benzyl (8)]
IC50 [5]: > 25000 nM | IC50 [6]: > 25000 nM | IC50 [7, 10]: 32 ± 3 nM | IC50 ([8]; Figure 1A and text, lactate uptake): 37 nM | IC50 [8, 11]: 25 ± 3 nM

Compound: CCCCN(CCCC)c1ccc(/C=C(\C#N)C(=O)O)c(OC)c1 [Butyl (3)]
IC50 [5]: > 25000 nM | IC50 [6]: > 25000 nM | glycolytic capacity (GST, ECAR) [1]: significant decrease | glycolytic reserve (GST, ECAR) [1]: significant decrease | IC50 [7, 10]: 14 ± 2 nM | ATP production (MST, OCR) [3]: decreased | maximal respiration (MST, OCR) [3]: decreased | spare respiratory capacity (MST, OCR) [3]: decreased | ATP production (MST, OCR) [4]: decreased | maximal respiration (MST, OCR) [4]: decreased | spare respiratory capacity (MST, OCR) [4]: decreased

Compound: N#CC(=Cc1ccc(O)cc1)C(=O)O [CHC, α-cyano-4-hydroxy cinnamic acid, reference compound]
glycolysis (GST, ECAR) [1]: did not affect | glycolytic capacity (GST, ECAR) [1]: did not affect | glycolytic reserve (GST, ECAR) [1]: decreased | glycolysis (GST, ECAR) [2]: did not affect | glycolytic capacity (GST, ECAR) [2]: did not affect | glycolytic reserve (GST, ECAR) [2]: decreased glycolytic reserve only in MCT1 expressing WiDr | IC50 ([7]; MCT4 IC50, CHC, lactate uptake): ≥ 150000 nM | ATP production (MST, OCR) [3]: did not affect | maximal respiration (MST, OCR) [3]: did not affect | proton leak (MST, OCR) [3]: did not affect | spare respiratory capacity (MST, OCR) [3]: did not affect | IC50 ([8]; CHC, lactate uptake): ≥ 150000 nM | ATP production (MST, OCR) [4]: did not affect | maximal respiration (MST, OCR) [4]: did not affect | proton leak (MST, OCR) [4]: did not affect | spare respiratory capacity (MST, OCR) [4]: did not affect

Compound: COc1cccc2c1C(=O)c1c(O)c3c(c(O)c1C2=O)C[C@@](O)(C(=O)CO)C[C@@H]3O[C@H]1C[C@H](N)[C@H](O)[C@H](C)O1 [doxorubicin, reference compound]
tumor growth inhibition based on tumor volume ([9]; 9 70 mg/kg ip bid until day-4, qd from day-5, doxorubicin 0.5 mg/kg ip five days a week, treatment up to 18 days): 48% | tumor growth inhibition based on isolated tumor weights ([9]; same regimens, tumors isolated on day 20): 52%

Now from value to molecule, other results behind:

IC50 [6]: > 25000 nM | IC50 [7, 10]: 17 ± 2 nM
Compound: COc1cc(N(CC(C)C)CC(C)C)ccc1/C=C(\C#N)C(=O)O [Isobutyl (4)]
IC50 [5]: > 25000 nM | IC50 [8, 11]: 11 ± 4 nM

IC50 [6]: > 25000 nM | IC50 [7, 10]: 85 ± 8 nM
Compound: CCCCCN(CCCCC)c1ccc(/C=C(\C#N)C(=O)O)c(OC)c1 [Pentyl (5)]
IC50 [5]: > 25000 nM | IC50 [8, 11]: 34 ± 7 nM

IC50 [6]: > 25000 nM | IC50 [7, 10]: 58 ± 13 nM
Compound: COc1cc(N2CCCCC2)ccc1/C=C(\C#N)C(=O)O [Piperidinyl (7)]
IC50 [5]: > 25000 nM | IC50 [8, 11]: 25 ± 5 nM

IC50 [6]: > 25000 nM | IC50 [7, 10]: 11 ± 1 nM
Compound: CCCN(CCC)c1ccc(/C=C(\C#N)C(=O)O)c(OC)c1 [Propyl (1)]
IC50 [5]: > 25000 nM | IC50 [8, 11]: 12 ± 1 nM

IC50 [6]: > 25000 nM
Compound: COc1cc(N2CCCC2)ccc1/C=C(\C#N)C(=O)O [Pyrrolidinyl (6)]
IC50 [5]: > 25000 nM
